According to patent publication US11655241B2, “Heterocyclic compound and use thereof” (Takeda Pharmaceutical Company Limited, priority 2018, dated 2023):

Biological target: T1, human orexin type 2 receptor (Homo sapiens, UniProt O43614)
T1 construct: expressed in transfected cells
T1 sequence (O43614 1-444): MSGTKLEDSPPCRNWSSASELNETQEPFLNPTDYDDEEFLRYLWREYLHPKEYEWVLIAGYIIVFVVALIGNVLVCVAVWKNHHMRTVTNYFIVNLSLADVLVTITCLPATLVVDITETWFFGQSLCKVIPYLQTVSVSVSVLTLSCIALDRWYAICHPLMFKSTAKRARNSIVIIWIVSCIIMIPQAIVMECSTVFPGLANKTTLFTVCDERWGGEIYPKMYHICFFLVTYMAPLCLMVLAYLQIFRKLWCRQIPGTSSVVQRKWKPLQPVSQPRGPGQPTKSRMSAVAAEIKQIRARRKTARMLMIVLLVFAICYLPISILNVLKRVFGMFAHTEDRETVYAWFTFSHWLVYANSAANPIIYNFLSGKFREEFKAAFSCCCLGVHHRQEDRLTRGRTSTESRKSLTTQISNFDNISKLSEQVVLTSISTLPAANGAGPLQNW
Assay: Measurement of orexin type 2 receptor agonist activity (calcium fluorescence, Fluo-4 AM, FDSS)
Format: cell-based
Conditions: compound at 3 μM; CHO cells forcibly expressing human OX2 receptor; DMSO = 0%, orexin A (human) 10 nM = 100%
Source text: Experimental Example 1: Obtainment of Cell Stably Expressing Human Orexin Type 2 Receptor (hOX2R)
To obtain a cell clone stably expressing human orexin type 2 receptor, human orexin type 2 receptor cDNA was inserted into pcDNA3.1(+) plasmid vector (Invitrogen), and a plasmid DNA for expression of human orexin type 2 receptor (pcDNA3.1(+)/hOX2R) was cloned. The plasmid DNA was introduced into CHO-dhfr cell by an electroporation method, and human orexin type 2 receptor expressing clone cells were obtained by limiting dilution method by using G418 drug resistance as a selection marker.
Experimental Example 2: Measurement of Orexin Type 2 Receptor Agonist Activity
CHO cells forcibly expressing human OX2 receptor were seeded in each well of 384 well black transparent bottom plate (BD Falcon) at 7,500 cells/well, and cultured for one day in a 5% CO2 incubator at 37° C. After removal of the medium in the cell plate, assay buffer A containing a calcium indicator (HBSS (Thermo Fisher Scientific), 20 mM HEPES (Thermo Fisher Scientific), 0.1% BSA (Wako Pure Chemical Industries, Ltd. or Sigma-Aldrich), 2.5 μg/mL Fluo-4 AM (DOJINDO Chemical), 0.08% Pluronic F127 (DOJINDO Chemical), 1.25 mM probenecid (DOJINDO Chemical)) was added at 30 μL/well. The plate was stood for 30 min in a 5% CO2 incubator at 37° C., and further stood at room temperature for 30 min. A test compound prepared by diluting with assay buffer B (HBSS, 20 mM HEPES, 0.1% BSA) was added at 10 μL/well, and the fluorescence value was measured by FDSSμCELL (Hamamatsu Photonics K.K.) every one sec for 1 min, and thereafter every two sec for 1 min 40 sec. The activity (%) of the test compound was calculated assuming that variation in the fluorescence value when DMSO was added instead of the test compound was 0%, and variation in the fluorescence value when orexin A (human) (PEPTIDE INSTITUTE, INC.) was added at the final concentration of 10 nM was 100%. The activity of each compound at the concentration of 3 μM was shown below.

OX2R agonist activity (3 μM, %) [%]	SMILES
86	CN(C)C(=O)C(=O)N[C@H]1CCN(C(=O)C2(C#N)CCC2)[C@H]1Cc1cccc(-c2cccc(F)c2)c1 [Example 36, N^~2^~-((2S,3S)-1-(1-cyanocyclobutane-1-carbonyl)-2-[(3′-flluoro[1,1′-biphenyl]-3-yl)methyl]pyrrolidin-3-yl]-N^~1^~,N^~1^~- dimethylethanediamide]
101	CN(C)C(=O)C(=O)N[C@H]1CCN(C(=O)C2(O)CCC2)[C@H]1Cc1cccc(-c2cccc(F)c2)c1 [Example 37, N^~2^~-[(2S,3S)-2-[(3′-fluoro[1,1′-biphenyl]-3-yl)methyl]-1-(1-hydroxycyclobutane-1-carbonyl)pyrrolidin-3-yl]-N^~1^~,N^~1^~- dimethylethanediamide]
79	CN(C)C(=O)C(=O)N[C@H]1CCN(C(=O)C(C)(C)CO)[C@H]1Cc1cccc(-c2cccc(F)c2)c1 [Example 40, N^~2^~-[(2S,3S)-2-[(3′-fluoro[1,1′-biphenyl]-3-yl)methyl]-1-(3-hydroxy-2,2-dimethylpropanoyl)pyrrolidin-3-yl]-N^~1^~,N^~1^~-dimethylethanediamide]
62	O=C(N[C@H]1CCN(C(=O)C2(F)CCC2)[C@H]1Cc1cccc(-c2cccc(F)c2)c1)[C@@H]1CCCO1 [Example 43, (2S)-N-[(2S,3S)-2-[(3′-fluoro[1,1′-biphenyl]-3-yl)methyl]-1-(1-fluorocyclobutane-1-carbonyl)pyrrolidin-3-yl]oxolane-2-carboxamide]
86	O=C(N[C@H]1CCN(C(=O)C2(O)CCC2)[C@H]1Cc1cccc(-c2cccc(F)c2)c1)[C@@H]1CCCO1 [Example 45]
67	CC(C)(CO)C(=O)N1CC[C@H](NC(=O)[C@@H]2CCCO2)[C@@H]1Cc1cccc(-c2cccc(F)c2)c1 [Example 46, (2S)-N-[(2S,3S)-2-[(3′-fluoro[1,1′-biphenyl]-3-yl)methyl]-1-(3-hydroxy-2,2-dimethylpropanoyl)pyrrolidin-3-yl]oxolane-2-carboxamide]
